From patent publication US9951028B2, “Agricultural chemicals” (REDAG CROP PROTECTION LTD, priority 2013, dated 2018)

Legend:
Assay in all cases: Herbicidal efficacy screen, potter tower spray, necrosis assessed
Format in all cases: in vivo
[1] = system: garden cress, Lepidium sativum
Description: (§1) Compounds 22, 23 and 24 were screened for herbicidal efficacy against target plants: garden cress, Lepidium sativum, common chickweed, Stellaria media, and white mustard […] alba Plants were obtained as seeds and were grown to the 2-4 true leaf stage. Plants were grown under laboratory conditions, individually in seed trays. Each plant (in an approximately 3 cm diameter plug) was then detached from the tray for spraying. The compounds were screened at a range of five concentrations, diluted in acetone and TweenTM. A carrier only control was also conducted. Treatments were applied directly onto the plants, using a potter tower, at a specified application rate. One plant of each species was sprayed using a potter tower. The 3 different types of plants were placed on a 10 cm diameter platform directly beneath the potter sprayer and sprayed simultaneously. The growth of the plants and any Phytotoxicity effects were then assessed at intervals over 21 days, according to EPPO guideline PP1/135. Five replicas were performed for each treatment, for each species. In the tables below C represents a percentage increase in necrosis relative to the control of 0.1-50; B represents a percentage inhibition of 50-80; and A represents a percentage inhibition of 80-100.

[2] = system: common chickweed, Stellaria media
Description: as §1

[3] = system: white mustard Sinapsis alba
Description: as §1

[4] = 12.5 g/ha, day 1 post application
[5] = 12.5 g/ha, day 2 post application
[6] = 12.5 g/ha, day 3 post application
[7] = 12.5 g/ha, day 4 post application
[8] = 12.5 g/ha, day 5 post application
[9] = 12.5 g/ha, day 7 post application
[10] = 12.5 g/ha, day 10 post application
[11] = 25 g/ha, day 1 post application
[12] = 25 g/ha, day 2 post application
[13] = 25 g/ha, day 3 post application
[14] = 25 g/ha, day 4 post application
[15] = 25 g/ha, day 5 post application
[16] = 25 g/ha, day 7 post application
[17] = 25 g/ha, day 10 post application
[18] = 50 g/ha, day 1 post application
[19] = 50 g/ha, day 2 post application
[20] = 50 g/ha, day 3 post application
[21] = 50 g/ha, day 4 post application
[22] = 50 g/ha, day 5 post application
[23] = 50 g/ha, day 7 post application
[24] = 50 g/ha, day 10 post application
[25] = 100 g/ha, day 1 post application
[26] = 100 g/ha, day 2 post application
[27] = 100 g/ha, day 3 post application
[28] = 100 g/ha, day 4 post application
[29] = 100 g/ha, day 5 post application
[30] = 100 g/ha, day 7 post application
[31] = 100 g/ha, day 10 post application
[32] = 200 g/ha, day 1 post application
[33] = 200 g/ha, day 2 post application
[34] = 200 g/ha, day 3 post application
[35] = 200 g/ha, day 4 post application
[36] = 200 g/ha, day 5 post application
[37] = 200 g/ha, day 7 post application
[38] = 200 g/ha, day 10 post application

Question: Which results are given for `CC(C)N(C)S(=O)(=O)NCc1cc(-n2c(=O)cc(C(F)(F)F)n(C)c2=O)c(F)cc1Cl` [Compound 23, 1-[4-Chloro-2-fluoro-5-[[(isopropyl(methyl)sulfamoyl)amino]methyl]phenyl]-3-methyl-2,6-dioxo-4-(trifluoromethyl)pyrimidine]?
Answer: Average of necrosis [1, 4]: C (C represents a percentage increase in necrosis relative to the control of 0.1-50); Average of necrosis [1, 5]: C (C represents a percentage increase in necrosis relative to the control of 0.1-50); Average of necrosis [1, 6]: C (C represents a percentage increase in necrosis relative to the control of 0.1-50); Average of necrosis [1, 7]: C (C represents a percentage increase in necrosis relative to the control of 0.1-50); Average of necrosis [1, 8]: C (C represents a percentage increase in necrosis relative to the control of 0.1-50); Average of necrosis [1, 9]: C (C represents a percentage increase in necrosis relative to the control of 0.1-50); Average of necrosis [1, 10]: C (C represents a percentage increase in necrosis relative to the control of 0.1-50); Average of necrosis [1, 11]: C (C represents a percentage increase in necrosis relative to the control of 0.1-50); Average of necrosis [1, 12]: C (C represents a percentage increase in necrosis relative to the control of 0.1-50); Average of necrosis [1, 13]: C (C represents a percentage increase in necrosis relative to the control of 0.1-50); Average of necrosis [1, 14]: C (C represents a percentage increase in necrosis relative to the control of 0.1-50); Average of necrosis [1, 15]: C (C represents a percentage increase in necrosis relative to the control of 0.1-50); Average of necrosis [1, 16]: C (C represents a percentage increase in necrosis relative to the control of 0.1-50); Average of necrosis [1, 17]: B (B represents a percentage inhibition of 50-80); Average of necrosis [1, 18]: C (C represents a percentage increase in necrosis relative to the control of 0.1-50); Average of necrosis [1, 19]: C (C represents a percentage increase in necrosis relative to the control of 0.1-50); Average of necrosis [1, 20]: C (C represents a percentage increase in necrosis relative to the control of 0.1-50); Average of necrosis [1, 21]: C (C represents a percentage increase in necrosis relative to the control of 0.1-50); Average of necrosis [1, 22]: B (B represents a percentage inhibition of 50-80); Average of necrosis [1, 23]: B (B represents a percentage inhibition of 50-80); Average of necrosis [1, 24]: B (B represents a percentage inhibition of 50-80); Average of necrosis [1, 25]: C (C represents a percentage increase in necrosis relative to the control of 0.1-50); Average of necrosis [1, 26]: C (C represents a percentage increase in necrosis relative to the control of 0.1-50); Average of necrosis [1, 27]: C (C represents a percentage increase in necrosis relative to the control of 0.1-50); Average of necrosis [1, 28]: C (C represents a percentage increase in necrosis relative to the control of 0.1-50); Average of necrosis [1, 29]: B (B represents a percentage inhibition of 50-80); Average of necrosis [1, 30]: B (B represents a percentage inhibition of 50-80); Average of necrosis [1, 31]: B (B represents a percentage inhibition of 50-80); Average of necrosis [1, 32]: C (C represents a percentage increase in necrosis relative to the control of 0.1-50); Average of necrosis [1, 33]: B (B represents a percentage inhibition of 50-80); Average of necrosis [1, 34]: B (B represents a percentage inhibition of 50-80); Average of necrosis [1, 35]: B (B represents a percentage inhibition of 50-80); Average of necrosis [1, 36]: B (B represents a percentage inhibition of 50-80); Average of necrosis [1, 37]: B (B represents a percentage inhibition of 50-80); Average of necrosis [1, 38]: B (B represents a percentage inhibition of 50-80); Average of necrosis [2, 4]: C (C represents a percentage increase in necrosis relative to the control of 0.1-50); Average of necrosis [2, 5]: C (C represents a percentage increase in necrosis relative to the control of 0.1-50); Average of necrosis [2, 6]: C (C represents a percentage increase in necrosis relative to the control of 0.1-50); Average of necrosis [2, 7]: C (C represents a percentage increase in necrosis relative to the control of 0.1-50); Average of necrosis [2, 8]: B (B represents a percentage inhibition of 50-80); Average of necrosis [2, 9]: B (B represents a percentage inhibition of 50-80); Average of necrosis [2, 10]: A (A represents a percentage inhibition of 80-100); Average of necrosis [2, 11]: C (C represents a percentage increase in necrosis relative to the control of 0.1-50); Average of necrosis [2, 12]: C (C represents a percentage increase in necrosis relative to the control of 0.1-50); Average of necrosis [2, 13]: C (C represents a percentage increase in necrosis relative to the control of 0.1-50); Average of necrosis [2, 14]: C (C represents a percentage increase in necrosis relative to the control of 0.1-50); Average of necrosis [2, 15]: B (B represents a percentage inhibition of 50-80); Average of necrosis [2, 16]: B (B represents a percentage inhibition of 50-80); Average of necrosis [2, 17]: B (B represents a percentage inhibition of 50-80); Average of necrosis [2, 18]: C (C represents a percentage increase in necrosis relative to the control of 0.1-50); Average of necrosis [2, 19]: C (C represents a percentage increase in necrosis relative to the control of 0.1-50); Average of necrosis [2, 20]: C (C represents a percentage increase in necrosis relative to the control of 0.1-50); Average of necrosis [2, 21]: C (C represents a percentage increase in necrosis relative to the control of 0.1-50); Average of necrosis [2, 22]: B (B represents a percentage inhibition of 50-80); Average of necrosis [2, 23]: B (B represents a percentage inhibition of 50-80); Average of necrosis [2, 24]: B (B represents a percentage inhibition of 50-80); Average of necrosis [2, 25]: C (C represents a percentage increase in necrosis relative to the control of 0.1-50); Average of necrosis [2, 26]: C (C represents a percentage increase in necrosis relative to the control of 0.1-50); Average of necrosis [2, 27]: C (C represents a percentage increase in necrosis relative to the control of 0.1-50); Average of necrosis [2, 28]: C (C represents a percentage increase in necrosis relative to the control of 0.1-50); Average of necrosis [2, 29]: B (B represents a percentage inhibition of 50-80); Average of necrosis [2, 30]: B (B represents a percentage inhibition of 50-80); Average of necrosis [2, 31]: A (A represents a percentage inhibition of 80-100); Average of necrosis [2, 32]: C (C represents a percentage increase in necrosis relative to the control of 0.1-50); Average of necrosis [2, 33]: C (C represents a percentage increase in necrosis relative to the control of 0.1-50); Average of necrosis [2, 34]: C (C represents a percentage increase in necrosis relative to the control of 0.1-50); Average of necrosis [2, 35]: C (C represents a percentage increase in necrosis relative to the control of 0.1-50); Average of necrosis [2, 36]: B (B represents a percentage inhibition of 50-80); Average of necrosis [2, 37]: B (B represents a percentage inhibition of 50-80); Average of necrosis [2, 38]: B (B represents a percentage inhibition of 50-80); Average of necrosis [3, 4]: C (C represents a percentage increase in necrosis relative to the control of 0.1-50); Average of necrosis [3, 5]: C (C represents a percentage increase in necrosis relative to the control of 0.1-50); Average of necrosis [3, 6]: C (C represents a percentage increase in necrosis relative to the control of 0.1-50); Average of necrosis [3, 7]: C (C represents a percentage increase in necrosis relative to the control of 0.1-50); Average of necrosis [3, 8]: C (C represents a percentage increase in necrosis relative to the control of 0.1-50); Average of necrosis [3, 9]: C (C represents a percentage increase in necrosis relative to the control of 0.1-50); Average of necrosis [3, 10]: C (C represents a percentage increase in necrosis relative to the control of 0.1-50); Average of necrosis [3, 11]: C (C represents a percentage increase in necrosis relative to the control of 0.1-50); Average of necrosis [3, 12]: C (C represents a percentage increase in necrosis relative to the control of 0.1-50); Average of necrosis [3, 13]: C (C represents a percentage increase in necrosis relative to the control of 0.1-50); Average of necrosis [3, 14]: C (C represents a percentage increase in necrosis relative to the control of 0.1-50); Average of necrosis [3, 15]: C (C represents a percentage increase in necrosis relative to the control of 0.1-50); Average of necrosis [3, 16]: C (C represents a percentage increase in necrosis relative to the control of 0.1-50); Average of necrosis [3, 17]: C (C represents a percentage increase in necrosis relative to the control of 0.1-50); Average of necrosis [3, 18]: C (C represents a percentage increase in necrosis relative to the control of 0.1-50); Average of necrosis [3, 19]: C (C represents a percentage increase in necrosis relative to the control of 0.1-50); Average of necrosis [3, 20]: C (C represents a percentage increase in necrosis relative to the control of 0.1-50); Average of necrosis [3, 21]: C (C represents a percentage increase in necrosis relative to the control of 0.1-50); Average of necrosis [3, 22]: C (C represents a percentage increase in necrosis relative to the control of 0.1-50); Average of necrosis [3, 23]: C (C represents a percentage increase in necrosis relative to the control of 0.1-50); Average of necrosis [3, 24]: C (C represents a percentage increase in necrosis relative to the control of 0.1-50); Average of necrosis [3, 25]: C (C represents a percentage increase in necrosis relative to the control of 0.1-50); Average of necrosis [3, 26]: C (C represents a percentage increase in necrosis relative to the control of 0.1-50); Average of necrosis [3, 27]: C (C represents a percentage increase in necrosis relative to the control of 0.1-50); Average of necrosis [3, 28]: C (C represents a percentage increase in necrosis relative to the control of 0.1-50); Average of necrosis [3, 29]: C (C represents a percentage increase in necrosis relative to the control of 0.1-50); Average of necrosis [3, 30]: C (C represents a percentage increase in necrosis relative to the control of 0.1-50); Average of necrosis [3, 31]: C (C represents a percentage increase in necrosis relative to the control of 0.1-50); Average of necrosis [3, 32]: C (C represents a percentage increase in necrosis relative to the control of 0.1-50); Average of necrosis [3, 33]: C (C represents a percentage increase in necrosis relative to the control of 0.1-50); Average of necrosis [3, 34]: C (C represents a percentage increase in necrosis relative to the control of 0.1-50); Average of necrosis [3, 35]: C (C represents a percentage increase in necrosis relative to the control of 0.1-50); Average of necrosis [3, 36]: C (C represents a percentage increase in necrosis relative to the control of 0.1-50); Average of necrosis [3, 37]: C (C represents a percentage increase in necrosis relative to the control of 0.1-50); Average of necrosis [3, 38]: C (C represents a percentage increase in necrosis relative to the control of 0.1-50)
